Assay [1] deals with Green Peach Aphid (Myzus Persicae). Nature of the assay: Insecticidal test for green peach aphid in foliar spray assay (col. MYZUPE). It is filed as in vivo. The conditions noted are these: Myzus persicae, 72 h, green peach aphid, read-out: MYZUPE 200 ppm (Corrected % Control, rating). How it is done: (§1) The compounds were tested against cotton aphid, green peach aphid, and sweet potato whitefly using procedures described in the following examples and reported in Table 2.
(§2) In each case of Table 2, the rating scale is as follows at 200 ppm.
Insecticidal Test for Green Peach Aphid (Myzus Persicae) in Foliar Spray Assay
Cabbage seedlings grown in 3-inch pots, with 2-3 small (3-5 cm) true leaves, were used as test substrate. The seedlings were infested with 20-50 green peach aphids (wingless adult and nymph) one day prior to chemical application. Four pots with individual seedlings were used for each treatment. Compounds (2 mg) were dissolved in 2 mL of acetone/methanol (1:1) solvent, forming stock solutions of 1000 ppm. The stock solutions were diluted 5× with 0.025% Tween 20 in H2O to obtain a test solution at 200 ppm. A hand-held Devilbiss sprayer was used for spraying a solution to both sides of cabbage leaves until runoff. Reference plants (solvent check) were sprayed with the diluent only. Treated plants were held in a holding room for three days at approximately 25° C. and 40% relative humidity (RH) prior to grading. Evaluation was conducted by counting the number of live aphids per plant under a microscope. Corrected % Control=100*(X−Y)/X • where X=No. of live aphids on solvent check plants • Y=No. of live aphids on treated plants

Assay [2] concerns Sweetpotato Whitefly-Crawler (Bemisia Tabaci). Nature of the assay: Insecticidal test for sweetpotato whitefly-crawler in foliar spray assay (col. BEMITA). Type of assay: in vivo. The note with it: Bemisia tabaci, sweetpotato whitefly-crawler, read-out: BEMITA 200 ppm (Corrected % Control, rating). On the procedure:
as §1, §2
Insecticidal Test for Sweetpotato Whitefly-Crawler (Bemisia Tabaci) in Foliar Spray Assay
Cotton plants grown in 3-inch pots, with 1 small (3-5 cm) true leaf, were used as test substrate. The plants were placed in a room with whitefly adults. Adults were allowed to deposit eggs for 2-3 days. After a 2-3 day egg-laying period, plants were taken from the adult whitefly room. Adults were blown off leaves using a hand-held Devilbiss sprayer (23 psi). Plants with egg infestation (100-300 eggs per plant) were placed in a holding room for 5-6 days at 82° F. and 50% RH for egg hatch and crawler stage to develop. Four cotton plants were used for each treatment. Compounds (2 mg) were dissolved in 1 mL of acetone solvent, forming stock solutions of 2000 ppm. The stock solutions were diluted 10× with 0.025% Tween 20 in H2O to obtain a test solution at 200 ppm. A hand-held Devilbiss sprayer was used for spraying a solution to both sides of cotton leaf until runoff. Reference plants (solvent check) were sprayed with the diluent only. Treated plants were held in a holding room for 8-9 days at approximately 82° F. and 50% RH prior to grading. Evaluation was conducted by counting the number of live nymphs per plant under a microscope. Insecticidal activity was measured by using Abbott's correction formula and presented in Table 2 (see col. “BEMITA”): Corrected % Control=100*(X−Y)/X • where X=No. of live nymphs on solvent check plants • Y=No. of live nymphs on treated plants Pesticidally Acceptable Acid Addition Salts, Salt Derivatives, Solvates, Ester Derivatives, Polymorphs, Isotopes and Radionuclides

Structures are written as SMILES.

As to `CSCC(C)C(=O)N(C)c1sc(-c2cccnc2)nc1C(F)(F)F` (stereo not drawn) [Compound 44], the pest or weed control at 200 ppm in assay [1] and in assay [2] was 80 to 100% throughout.

For the compound `CSCC(C)(C)C(=O)N(C)c1sc(-c2cccnc2)nc1C(F)(F)F` [Compound 45], the pest or weed control at 200 ppm in assay [1] was < 80%; in assay [2], 80 to 100%.

With `CC(C)C(=O)N(C)c1sc(-c2cccnc2)nc1C(F)(F)F` [Compound 46], the pest or weed control at 200 ppm in assay [1] and in assay [2] was < 80% in each case.

On to `CCc1nc(-c2cccnc2)sc1N(C)C(=O)CCSC` [Compound 47], for which the pest or weed control at 200 ppm in assay [1] and in assay [2] was 80 to 100% throughout.

Consider `CCc1nc(-c2cccnc2)sc1N(C)C(=O)C(C)C` [Compound 48], for which the pest or weed control at 200 ppm in assay [1] and in assay [2] was 80 to 100% throughout.

Turning to `CCc1nc(-c2cccnc2)sc1N(C)C(=O)C(C)(C)CSC` [Compound 49], the pest or weed control at 200 ppm in assay [1] was < 80%; in assay [2], 80 to 100%.

Turning to `CCc1nc(-c2cccnc2)sc1N(C)C(=O)C(C)CSC` (stereo not drawn) [Compound 50], the pest or weed control at 200 ppm in assay [1] and in assay [2] was 80 to 100% in each case.

`CSCCC(=O)N(C)c1sc(-c2cncnc2)nc1C` [Compound 51]: the pest or weed control at 200 ppm in assay [1] and in assay [2] was 80 to 100% each time.

On to `CSCC(C)C(=O)N(C)c1sc(-c2cncnc2)nc1C` (stereo not drawn) [Compound 52], for which the results for the pest or weed control at 200 ppm in assay [1] and in assay [2] were < 80% and 80 to 100%, respectively.

With `CSCC(C)(C)C(=O)Nc1sc(-c2cccnc2)nc1C` [Compound 57], the pest or weed control at 200 ppm in assay [1] and in assay [2] was 80 to 100% each time.

Take `CSCCC(=O)N(C)c1sc(-c2cccnc2)nc1C(C)C` [Compound 59]: the pest or weed control at 200 ppm in assay [1] is < 80%; in assay [2], 80 to 100%.

Consider `CSCC(C)C(=O)N(C)c1sc(-c2cccnc2)nc1C(C)C` (stereo not drawn) [Compound 60], for which the pest or weed control at 200 ppm in assay [1] and in assay [2] was < 80% in each case.

With `CCN(C(=O)CCSC)c1sc(-c2cccnc2)nc1-c1ccccc1` [Compound 61], the pest or weed control at 200 ppm in assay [1] and in assay [2] was < 80% each time.

Consider `CCN(C(=O)C(C)CSC)c1sc(-c2cccnc2)nc1-c1ccccc1` (stereo not drawn) [Compound 62], for which the pest or weed control at 200 ppm in assay [1] and in assay [2] was < 80% throughout.

`CCN(C(=O)C(C)C)c1sc(-c2cccnc2)nc1-c1ccccc1` [Compound 63]: the pest or weed control at 200 ppm in assay [1] and in assay [2] was < 80% in each case.

With `CSCCC(=O)N(C)c1sc(-c2cccnc2)nc1Cl` [Compound 66, N-(4-chloro-2-pyridin-3-yl-thiazol-5-yl)-N-methyl-3-methylsulfanyl-propionamide], the pest or weed control at 200 ppm in assay [1] and in assay [2] was 80 to 100% in each case.

Consider `CSCCNC(=O)N(C)c1cnc(-c2cncc(F)c2)s1` [Compound 72, [2-(5-fluoropyridin-3-yl)-thiazol-5-yl]-1-methyl-3-(2-methylsulfanyl-ethyl)urea], for which the pest or weed control at 200 ppm was 80 to 100% in assay [1] and < 80% in assay [2].

With `CCC(C)NC(=O)N(C)c1cnc(-c2cncc(F)c2)s1` (stereo not drawn) [Compound 73, 3-sec-Butyl-1-[2-(5-fluoropyridin-3-yl)-thiazol-5-yl]-1-methyl-urea], the pest or weed control at 200 ppm in assay [1] and in assay [2] was 80 to 100% each time.

Take `CSCCN(C)C(=O)N(C)c1cnc(-c2cncc(F)c2)s1` [Compound 74, [2-(5-fluoropyridin-3-yl)-thiazol-5-yl]-1,3-dimethyl-3-(2-methylsulfanyl-ethyl)urea]: the pest or weed control at 200 ppm in assay [1] and in assay [2] was 80 to 100% each time.

Take `CSCCOC(=O)N(C)c1cnc(-c2cncc(F)c2)s1` [Compound 75, [2-(5-fluoropyridin-3-yl)-thiazol-5-yl]-methyl-carbamic acid 2-methylsulfanyl-ethyl Ester]: the figures for the pest or weed control at 200 ppm in assay [1] and in assay [2] were 80 to 100% and < 80%, respectively.

With `CCOC(=O)N(C)c1cnc(-c2cncc(F)c2)s1` [Compound 76, [2-(5-Fluoropyridin-3-yl)-thiazol-5-yl]-methyl-carbamic acid ethyl ester], the pest or weed control at 200 ppm in assay [1] and in assay [2] was 80 to 100% in each case.

Regarding `CN(C(=O)OCc1ccc([N+](=O)[O-])o1)c1cnc(-c2cncc(F)c2)s1` [Compound 77, [2-(5-Fluoropyridin-3-yl)-thiazol-5-yl]-methyl-carbamic acid 5-nitro-furan-2-ylmethyl ester], the pest or weed control at 200 ppm in assay [1] was 80 to 100%; in assay [2], < 80%.

With `CN(C(=O)CC[S+](C)[O-])c1cnc(-c2cncc(F)c2)s1` (stereo not drawn) [Compound 78, N-[2-(5-fluoropyridin-3-yl)-thiazol-5-yl]-3-methanesulfinyl-N-methyl-propionamide], the pest or weed control at 200 ppm in assay [1] is 80 to 100%; in assay [2], < 80%.

Consider `Cc1nc(-c2cncc(F)c2)sc1N(C)C(=O)C(C)C[S+](C)[O-]` (stereo not drawn) [Compound 86], for which the pest or weed control at 200 ppm in assay [1] and in assay [2] was 80 to 100% throughout.

Turning to `Cc1nc(-c2cccnc2)sc1N(C)C(=O)C(C)C[S+](C)[O-]` (stereo not drawn) [Compound 87], the pest or weed control at 200 ppm in assay [1] and in assay [2] was 80 to 100% throughout.

Regarding `CN(C(=O)CC[S+](C)[O-])c1sc(-c2cccnc2)nc1C(F)(F)F` (stereo not drawn) [Compound 88], the pest or weed control at 200 ppm in assay [1] and in assay [2] was 80 to 100% in each case.

Regarding `CC(C[S+](C)[O-])C(=O)N(C)c1sc(-c2cccnc2)nc1C(F)(F)F` (stereo not drawn) [Compound 89], the pest or weed control at 200 ppm is < 80% in assay [1] and 80 to 100% in assay [2].

On to `Cc1nc(-c2cccnc2)sc1N(C)C(=O)CC[S+](C)[O-]` (stereo not drawn) [Compound 90], for which the pest or weed control at 200 ppm in assay [1] and in assay [2] was 80 to 100% throughout.

Take `Cc1nc(-c2cncc(F)c2)sc1N(C)C(=O)CC[S+](C)[O-]` (stereo not drawn) [Compound 91]: the pest or weed control at 200 ppm in assay [1] and in assay [2] was 80 to 100% throughout.

Consider `Cc1nc(-c2cccnc2)sc1N(C)C(=O)CCS(C)(=O)=O` [Compound 95, 3-methanesulfonyl-N-methyl-N-(4-methyl-2-pyridin-3-yl-thiazol-5-yl)-propionamide], for which the pest or weed control at 200 ppm in assay [1] and in assay [2] was 80 to 100% each time.

As for `Cc1nc(-c2cccnc2)sc1N(C)C(=O)C(C)(C)CS(C)(=O)=O` [Compound 97], the pest or weed control at 200 ppm in assay [1] and in assay [2] was 80 to 100% throughout.

Regarding `CSCC(C)C(=O)Nc1sc(-c2cccnc2)nc1C(F)(F)F` (stereo not drawn) [Compound 134], the pest or weed control at 200 ppm in assay [1] was 80 to 100%; in assay [2], < 80%.

As to `CSCC(C)(C)C(=O)Nc1sc(-c2cccnc2)nc1C(F)(F)F` [Compound 135], the figures for the pest or weed control at 200 ppm in assay [1] and in assay [2] were 80 to 100% and < 80%, respectively.

`COc1cncc(-c2nc(C)c(NC(=O)C(C)CSC)s2)c1` (stereo not drawn) [Compound 137]: the pest or weed control at 200 ppm in assay [1] and in assay [2] was < 80% throughout.

`C=CCSCC(C)C(=O)N(C)c1sc(-c2cccnc2)nc1C` (stereo not drawn) [Compound 138]: the pest or weed control at 200 ppm in assay [1] and in assay [2] was 80 to 100% throughout.

`CSCC(C)(C)C(=O)Nc1sc(-c2cncc(F)c2)nc1C` [Compound 139]: the pest or weed control at 200 ppm in assay [1] and in assay [2] was 80 to 100% throughout.

For `CSCC(C)C(=O)N(C(=O)C(C)C)c1sc(-c2cncc(S(C)(=O)=O)c2)nc1C` (stereo not drawn) [Compound 152], the pest or weed control at 200 ppm in assay [1] and in assay [2] was < 80% in each case.

On to `CSCC(C)C(=O)N(C(=O)OC(C)(C)C)c1sc(-c2cccnc2F)nc1C` (stereo not drawn) [Compound 154], for which the pest or weed control at 200 ppm in assay [1] and in assay [2] was < 80% in each case.

In the case of `CCOC(=O)c1cncc(-c2nc(C)c(N(C(=O)OC(C)(C)C)C(=O)C(C)CSC)s2)c1` (stereo not drawn) [Compound 155], the pest or weed control at 200 ppm in assay [1] and in assay [2] was < 80% each time.

These data come from patent US8853246B2 (Dow AgroSciences LLC, priority 2009, dated 2014).
